The results in this text go back to patent publication EP0409227A2, “Pyrimidine nucleosides, their preparation and pharmaceutical preparations” (MATTHES, Eckart, Dr., priority 1989, dated 1991).

A value given as a limit tells only on which side of the number the result lay.

T1 sequence (P03156 whole entry): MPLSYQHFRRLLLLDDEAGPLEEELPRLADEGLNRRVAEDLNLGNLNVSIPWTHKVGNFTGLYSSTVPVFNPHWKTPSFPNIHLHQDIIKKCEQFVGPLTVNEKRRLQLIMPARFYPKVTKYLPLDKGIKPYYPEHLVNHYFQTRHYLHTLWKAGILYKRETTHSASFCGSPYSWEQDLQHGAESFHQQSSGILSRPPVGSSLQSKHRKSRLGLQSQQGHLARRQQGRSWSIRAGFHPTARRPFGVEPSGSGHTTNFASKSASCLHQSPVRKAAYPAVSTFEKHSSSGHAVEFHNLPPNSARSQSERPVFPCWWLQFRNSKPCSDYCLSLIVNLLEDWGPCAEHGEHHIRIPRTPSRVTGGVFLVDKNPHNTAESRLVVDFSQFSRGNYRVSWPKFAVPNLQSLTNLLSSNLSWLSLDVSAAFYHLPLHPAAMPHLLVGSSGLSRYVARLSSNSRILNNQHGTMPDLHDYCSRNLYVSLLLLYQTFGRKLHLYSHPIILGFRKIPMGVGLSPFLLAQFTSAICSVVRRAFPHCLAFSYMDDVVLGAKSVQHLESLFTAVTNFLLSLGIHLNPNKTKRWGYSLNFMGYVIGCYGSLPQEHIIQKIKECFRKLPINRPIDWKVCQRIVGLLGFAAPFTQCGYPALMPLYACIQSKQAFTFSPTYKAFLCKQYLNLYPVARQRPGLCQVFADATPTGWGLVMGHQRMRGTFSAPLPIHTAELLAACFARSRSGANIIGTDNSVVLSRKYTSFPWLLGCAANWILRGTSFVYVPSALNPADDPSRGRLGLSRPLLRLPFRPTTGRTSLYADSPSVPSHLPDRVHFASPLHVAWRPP

The first test has as its target T1, HBV-Polymerase (Hepatitis B virus genotype D subtype ayw, UniProt P03156).
T1 construct: Es wurde zunächst die Hemmbarkeit der HBV-assoziierten Polymerase; host or cells: virus-associated endogenous polymerase
Nature of the test: Inhibition of HBV polymerase activity by nucleoside triphosphate analogues (method of Kaplan et al.). The class given is biochemical. To be noted: 50 % inhibition of HBV polymerase activity; 3 h incubation at 37 °C; read-out: ID₅₀. From the text: Das Hepatitis B Virus (HBV) besitzt eine zirkuläre, partiell doppelsträngige DNA, welche nach Infektion einer Leberzelle durch eine viruseigene Polymerase repliziert wird. Dieser Vorgang setzt jedoch die Synthese einer RNA durch eine zelluläre RNA-Polymerase voraus. Nur diese RNA-Matrize - im Zusammenhang mit der Replikation auch als Prägenom bezeichnet - kann von der HBV-Polymerase für die Synthese zunächst eines RNA-DNA Hybrids und dann der doppelsträngigen DNA benutzt werden. Damit verfügt die HBV-Polymerase über eine enzymatische Aktivität, die der einer reversen Transcriptase ähnelt (Will et al., J.Virology 61, 904 (1987)). Es wurde zunächst die Hemmbarkeit der HBV-assoziierten Polymerase durch die 5′-Triphosphate der erfindungsgemäßen Verbindungen untersucht. Dazu wurde die von Kaplan et al. (J.Virology 12, 995 (1973)) angegebene Methode zur Bestimmung der HBV-Polymerase benutzt, wobei die zu testenden Triphosphate den Ansätzen in verschiedenen Konzentrationen zugesetzt wurden. Die Hemmung der Enzymreaktion wurde nach 3-stündiger Inkubation bei 37 °C durch Vergleich mit einem Kontrollwert ermittelt und daraus die Konzentration der zugesetzten Analoga bestimmt, die zu einer 50 %igen Hemmung der HBV-Polymerase-Aktivität führt (ID₅₀). Tabelle 1 zeigt die Ergebnisse, wobei insbesondere 2′,3′-Didesoxy-3′-fluor-5-methylcytidin durch einen Wert ID₅₀ von 0,03 µM herausragt und damit zu den stärksten bisher bekannten Hemmstoffen der HBV-Polymerase zu rechnen ist. Tabelle 1
For `Cc1cn([C@H]2CC[C@@H](COP(=O)(O)OP(=O)(O)OP(=O)(O)O)O2)c(=O)nc1N` [ddMetCTP, 2′,3′-Didesoxy-5-methylcytidin-5′-triphosphat], the IC50 worked out at 8 µM.
Regarding `Cc1cn([C@H]2C[C@H](F)[C@@H](COP(=O)(O)OP(=O)(O)OP(=O)(O)O)O2)c(=O)nc1N` [FMetdCTP, 2′,3′-Didesoxy-3′-fluor-5-methylcytidin-5′-triphosphat], the IC50 is 0.03 µM.
For `Nc1nc2c(ncn2[C@H]2C=C[C@@H](COP(=O)(O)OP(=O)(O)OP(=O)(O)O)O2)c(=O)[nH]1` [ddeGTP, 2′,3′-Didehydro-2′,3′-didesoxyguanosin-5′-triphosphat], the IC50 is 1.6 µM.
Consider `Nc1nc2c(ncn2[C@H]2C[C@H](F)[C@@H](COP(=O)(O)OP(=O)(O)OP(=O)(O)O)O2)c(=O)[nH]1` [FdGTP, 2′,3′-Didesoxy-3′-fluorguanosin-5′-triphosphat], for which the IC50 was found to be 0.15 µM.
With `Nc1ccn([C@H]2C=C[C@@H](COP(=O)(O)OP(=O)(O)OP(=O)(O)O)O2)c(=O)n1` [ddeCTP, 2′,3′-Didehydro-2′,3′-didesoxycytidin-5′-triphosphat], the IC50 worked out at 2.5 µM.
As to `Cc1cn([C@H]2C=C[C@@H](COP(=O)(O)OP(=O)(O)OP(=O)(O)O)O2)c(=O)nc1N` [ddeMetCTP, 2′,3′-Didehydro-2′,3′-didesoxy-5-methylcytidin-5′-triphosphat], the IC50 was determined as 0.28 µM.
The same measure, in the same setting: as for `Cc1cn([C@H]2C[C@H](Cl)[C@@H](COP(=O)(O)OP(=O)(O)OP(=O)(O)O)O2)c(=O)nc1N` [ClMetdCTP, 2′,3′-Didesoxy-3′chlor-5-methylcytidin-5′-triphosphat], the figure is 9 µM; as for `Nc1ncnc2c1ncn2[C@H]1C=C[C@@H](COP(=O)(O)OP(=O)(O)OP(=O)(O)O)O1` [ddeATP, 2′,3′-Didehydro-2′,3′-didesoxyadenosin-5′-triphosphat], 1.8 µM.

Another test deals with T2, DNA-Polymerase-alpha (Homo sapiens, UniProt P09884).
T2 construct: Die Isolierung der Enzyme und deren Aktivitätsbestimmung erfolgte entsprechend der Methode von Matthes et al; from tissue
T2 sequence (P09884 1-1462): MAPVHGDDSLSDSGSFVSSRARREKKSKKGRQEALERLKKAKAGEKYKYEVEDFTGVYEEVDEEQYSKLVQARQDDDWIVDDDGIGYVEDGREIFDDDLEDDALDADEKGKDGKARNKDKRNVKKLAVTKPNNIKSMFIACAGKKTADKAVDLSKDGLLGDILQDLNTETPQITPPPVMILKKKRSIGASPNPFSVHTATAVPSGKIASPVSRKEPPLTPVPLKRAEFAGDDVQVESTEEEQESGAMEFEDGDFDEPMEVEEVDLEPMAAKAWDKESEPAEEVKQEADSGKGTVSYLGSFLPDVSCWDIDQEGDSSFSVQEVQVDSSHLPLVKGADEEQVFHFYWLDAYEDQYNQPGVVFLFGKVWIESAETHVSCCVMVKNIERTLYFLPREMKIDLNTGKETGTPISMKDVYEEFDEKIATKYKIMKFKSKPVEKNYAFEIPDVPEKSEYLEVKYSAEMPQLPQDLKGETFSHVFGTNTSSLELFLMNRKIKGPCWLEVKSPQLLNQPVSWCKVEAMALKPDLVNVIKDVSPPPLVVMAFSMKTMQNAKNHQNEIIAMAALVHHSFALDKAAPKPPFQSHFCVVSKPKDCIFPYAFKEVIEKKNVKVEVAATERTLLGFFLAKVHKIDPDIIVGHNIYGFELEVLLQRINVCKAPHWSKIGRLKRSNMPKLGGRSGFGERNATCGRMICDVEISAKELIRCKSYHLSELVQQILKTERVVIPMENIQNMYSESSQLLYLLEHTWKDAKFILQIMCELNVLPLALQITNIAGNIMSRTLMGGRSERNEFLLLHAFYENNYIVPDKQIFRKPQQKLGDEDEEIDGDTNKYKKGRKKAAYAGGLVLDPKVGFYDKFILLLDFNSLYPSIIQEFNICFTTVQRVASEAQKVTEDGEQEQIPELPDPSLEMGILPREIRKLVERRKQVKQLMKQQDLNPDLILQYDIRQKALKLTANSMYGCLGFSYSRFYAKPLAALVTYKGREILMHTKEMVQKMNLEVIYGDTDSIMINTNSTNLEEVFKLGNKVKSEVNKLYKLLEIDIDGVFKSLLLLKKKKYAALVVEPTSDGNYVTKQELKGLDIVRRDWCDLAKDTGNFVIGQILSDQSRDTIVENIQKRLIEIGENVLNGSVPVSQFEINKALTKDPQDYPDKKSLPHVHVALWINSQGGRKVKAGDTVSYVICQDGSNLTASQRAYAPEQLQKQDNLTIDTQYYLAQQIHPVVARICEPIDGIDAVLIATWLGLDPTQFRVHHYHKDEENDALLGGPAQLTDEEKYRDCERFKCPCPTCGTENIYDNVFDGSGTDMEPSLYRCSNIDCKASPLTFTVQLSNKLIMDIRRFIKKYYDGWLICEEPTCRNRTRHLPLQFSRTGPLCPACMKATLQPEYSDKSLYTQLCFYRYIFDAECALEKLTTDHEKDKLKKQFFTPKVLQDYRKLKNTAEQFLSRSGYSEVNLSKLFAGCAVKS
Nature of the test: Effect of modified nucleoside triphosphates on cellular DNA polymerase alpha. In kind it is biochemical. The following applies: read-out: ID₅₀ (µM) DNA-Polymerase- alpha. An excerpt:
(§1) Um zu prüfen, inwieweit die beschriebene Wirkung auf die HBV-Polymerase selektiv ist, d.h., die zellulären DNA-Polymerasen von einer Hemmung durch die erfindungsgemäßen Nucleosidtriphosphate ausgenommen sind, wurden die zellulären DNA-Polymerasen-alpha und -beta in die Untersuchungen einbezogen. Die Isolierung der Enzyme und deren Aktivitätsbestimmung erfolgte entsprechend der Methode von Matthes et al. (Biomed.Biochim.Acta 44, K63-K73 (1985)). Die Ergebnisse der Tabelle 2 zeigen, daß die für die Replikation der zellulären DNA zuständige DNA-Polymerase alpha weitgehend unbeeinflußt bleibt. Eine 50 %ige Hemmung dieses Enzyms wird mit Ausnahme auch bei Hemmstoffkonzentrationen >100 µM noch nicht erreicht, so daß die DNA-Polymerase-alpha diesen Verbindungen gegenüber als nahezu resistent anzusehen ist. Für die DNA-Polymerase-beta, die als Reparaturenzym zellulärer DNA-Schäden angesehen wird, liegen die ID₅₀- Werte zwischen 1 und >200 µM. Damit besitzt die beschriebene Verbindung eine hohe Wirkungsspezifität. Tabelle 2
For the compound `Cc1cn([C@H]2CC[C@@H](COP(=O)(O)OP(=O)(O)OP(=O)(O)O)O2)c(=O)nc1N` [ddMetCTP, 2′,3′-Didesoxy-5-methylcytidin-5′-triphosphat], the IC50 was greater than 200 µM.
Regarding `Cc1cn([C@H]2C[C@H](F)[C@@H](COP(=O)(O)OP(=O)(O)OP(=O)(O)O)O2)c(=O)nc1N` [FMetdCTP, 2′,3′-Didesoxy-3′-fluor-5-methylcytidin-5′-triphosphat], the IC50 is greater than 200 µM.
As for `Nc1nc2c(ncn2[C@H]2C=C[C@@H](COP(=O)(O)OP(=O)(O)OP(=O)(O)O)O2)c(=O)[nH]1` [ddeGTP, 2′,3′-Didehydro-2′,3′-didesoxyguanosin-5′-triphosphat], the IC50 was greater than 150 µM.
Regarding `Nc1nc2c(ncn2[C@H]2C[C@H](F)[C@@H](COP(=O)(O)OP(=O)(O)OP(=O)(O)O)O2)c(=O)[nH]1` [FdGTP, 2′,3′-Didesoxy-3′-fluorguanosin-5′-triphosphat], the IC50 is greater than 200 µM.
Turning to `Nc1ccn([C@H]2C=C[C@@H](COP(=O)(O)OP(=O)(O)OP(=O)(O)O)O2)c(=O)n1` [ddeCTP, 2′,3′-Didehydro-2′,3′-didesoxycytidin-5′-triphosphat], the IC50 is greater than 200 µM.
On to `Cc1cn([C@H]2C=C[C@@H](COP(=O)(O)OP(=O)(O)OP(=O)(O)O)O2)c(=O)nc1N` [ddeMetCTP, 2′,3′-Didehydro-2′,3′-didesoxy-5-methylcytidin-5′-triphosphat], for which the IC50 is greater than 200 µM.
Consider `Cc1cn([C@H]2C[C@H](Cl)[C@@H](COP(=O)(O)OP(=O)(O)OP(=O)(O)O)O2)c(=O)nc1N` [ClMetdCTP, 2′,3′-Didesoxy-3′chlor-5-methylcytidin-5′-triphosphat], for which the IC50 is greater than 200 µM.
With `Nc1ncnc2c1ncn2[C@H]1C=C[C@@H](COP(=O)(O)OP(=O)(O)OP(=O)(O)O)O1` [ddeATP, 2′,3′-Didehydro-2′,3′-didesoxyadenosin-5′-triphosphat], the IC50 is greater than 100 µM.

The next test addresses T3, DNA-Polymerase-beta (Homo sapiens, UniProt P06746).
T3 construct: Die Isolierung der Enzyme und deren Aktivitätsbestimmung erfolgte entsprechend der Methode von Matthes et al; from tissue
The test can be described thus: Effect of modified nucleoside triphosphates on cellular DNA polymerase beta. The class given is biochemical. The following applies: read-out: ID₅₀ (µM) DNA-Polymerase- beta.
From the text: as §1
Take `Cc1cn([C@H]2CC[C@@H](COP(=O)(O)OP(=O)(O)OP(=O)(O)O)O2)c(=O)nc1N` [ddMetCTP, 2′,3′-Didesoxy-5-methylcytidin-5′-triphosphat]: the IC50 was greater than 100 µM.
On to `Cc1cn([C@H]2C[C@H](F)[C@@H](COP(=O)(O)OP(=O)(O)OP(=O)(O)O)O2)c(=O)nc1N` [FMetdCTP, 2′,3′-Didesoxy-3′-fluor-5-methylcytidin-5′-triphosphat], for which the IC50 came out at 1 µM.
On to `Nc1nc2c(ncn2[C@H]2C=C[C@@H](COP(=O)(O)OP(=O)(O)OP(=O)(O)O)O2)c(=O)[nH]1` [ddeGTP, 2′,3′-Didehydro-2′,3′-didesoxyguanosin-5′-triphosphat], for which the IC50 stood at 5 µM.
Same read-out and setting: as for `Nc1nc2c(ncn2[C@H]2C[C@H](F)[C@@H](COP(=O)(O)OP(=O)(O)OP(=O)(O)O)O2)c(=O)[nH]1` [FdGTP, 2′,3′-Didesoxy-3′-fluorguanosin-5′-triphosphat], the figure is 1.8 µM.
Take `Nc1ccn([C@H]2C=C[C@@H](COP(=O)(O)OP(=O)(O)OP(=O)(O)O)O2)c(=O)n1` [ddeCTP, 2′,3′-Didehydro-2′,3′-didesoxycytidin-5′-triphosphat]: the IC50 was found to be 6 µM.
For `Cc1cn([C@H]2C=C[C@@H](COP(=O)(O)OP(=O)(O)OP(=O)(O)O)O2)c(=O)nc1N` [ddeMetCTP, 2′,3′-Didehydro-2′,3′-didesoxy-5-methylcytidin-5′-triphosphat], the IC50 was determined as 10 µM.
With `Cc1cn([C@H]2C[C@H](Cl)[C@@H](COP(=O)(O)OP(=O)(O)OP(=O)(O)O)O2)c(=O)nc1N` [ClMetdCTP, 2′,3′-Didesoxy-3′chlor-5-methylcytidin-5′-triphosphat], the IC50 came to 100 µM.
The same measure, in the same setting: for `Nc1ncnc2c1ncn2[C@H]1C=C[C@@H](COP(=O)(O)OP(=O)(O)OP(=O)(O)O)O1` [ddeATP, 2′,3′-Didehydro-2′,3′-didesoxyadenosin-5′-triphosphat] the value was 4.5 µM.
